Results published in US20070032477A1, “Pteridine derivatives useful for making pharmaceutical compositions” (priority 2003, published 2007).

How the values were obtained:
[1] = test system: mixed lymphocyte reaction (PBMC with allogeneic PBMC or Eppstein-Barr Virus-transformed human B cells as stimulator cells); assay: Mixed lymphocyte reaction (MLR) assay; assay type: cell-based; conditions: lowest concentration giving 50% suppression of the MLR; [3H]-thymidine
[2] = test system: production of TNF-α by PBMC in response to stimulation by LPS; assay: TNF-α assay; assay type: cell-based, human; conditions: LPS 1 μg/ml, 72 hours, sandwich ELISA
In short: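 Cells were LPS-stimulated (1 μg/ml final) peripheral blood mononuclear cells at 10^6/ml, exposed 72 h at 37 °C to 0.1, 1 or 10 μM test compound.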

[3] = test system: production of IL-1 β by PBMC in response to stimulation by LPS; assay: IL-1 β assay; assay type: cell-based, human; conditions: LPS 1 μg/ml, 72 hours, sandwich ELISA
Protocol: Peripheral blood mononuclear cells (herein referred as PBMC), in response to stimulation by lipopolysaccharide (LPS), a gram-negative bacterial endotoxin, produce various […], in particular human IL-1 β. Inhibition of the activation of PBMC can therefore be measured by the level of suppression of the production of IL-1 β by PBMC in response to stimulation by LPS.
Such inhibition measurement was performed as follows: PBMC were isolated from heparinized peripheral blood by density gradient centrifugation over Lymphoprep (commercially available from Nycomed, Norway). LPS was then added to the PMBC suspension in complete medium (10^6 cells/ml) at a final concentration of 1 μg/ml. The pteridine derivative to be tested was added at different concentrations (0.1 μM, 1 μM and 10 μM) and the cells were incubated at 37° C. for 72 hours in 5% CO2. The supernatants were collected, then IL-1 β concentrations were measured with an anti-IL-1 β antibody in a sandwich ELISA. The calorimetric reading of the ELISA was measured by a Multiskan RC plate reader (commercially available from ThermoLabsystems, Finland) at 450 nm (reference wavelength: 690 nm). Data analysis was performed with Ascent software 2.6. (also from ThermoLabsystems, Finland): a standard curve (recombinant human IL-1 β) was drawn and the amount (pg/ml) of each sample on the standard curve was determined.
The % suppression of human IL-1 β by the pteridine derivatives (drugs) of this invention was calculated using the formula: [formula]

[4] = test system: LPS-induced shock in C3H mice; assay: Model of protection against septic shock (LPS); assay type: in vivo; conditions: 100 μg LPS i.p., 20 mg/kg/day i.p. at time of injection and 24 hours later
Protocol: As a control group, 4 sham treated (saline injection) C3H mice being injected intraperitoneously with 100 μg lipopolysaccharide (hereinafter LPS) per mouse, all died within 1 to 3 days after injection.

Structure (SMILES): COc1ccc(-c2cnc3nc(N)nc(N4CCN(C(=O)COc5ccccc5)CC4)c3n2)cc1OC [Example 17, 2-amino-4-[(N-phenoxyacetyl)-piperazin-1-yl]-6-(3,4-dimethoxy-phenyl)pteridine]
- IC50 [1]: 0.0038 µM
- IC50 [2]: 0.08 µM
- IC50 [3]: 2.8 µM
- protection from acute shock related mortality [4]: all mice were protected from acute shock related mortality

Structure (SMILES): COc1ccc(-c2cnc3nc(N)nc(N4CCN(c5ccc(C)cc5)CC4)c3n2)cc1OC [Example 176, 2-amino-6-(3,4-dimethoxyphenyl)-4-((4-methylphenyl)-piperazin-1-yl)pteridine]
- IC50 [1]: 0.3 µM
- IC50 [2]: < 0.01 µM
- IC50 [3]: 4.9 µM
